This note sets out measurements from ChEMBL document CHEMBL1153338, “Semi-synthetic and synthetic 1,2,4-trioxaquines and 1,2,4-trioxolaquines: synthesis, preliminary SAR and comparison with acridine endoperoxide conjugates” (Bioorg Med Chem Lett, 2009).

Experiment [1] concerns Plasmodium falciparum. Nature of the experiment: Antimalarial activity against chloroquine-sensitive Plasmodium falciparum 3D7 infected type A+ human erythrocytes after 24 hrs by [G-3H]hypoxanthine uptake. The experiment is classed as functional, organism-based. As to conditions: 3D7, 24 h.
Experiment [2] concerns Plasmodium falciparum. Nature of the experiment: Antimalarial activity against chloroquine-resistant Plasmodium falciparum K1 infected type A+ human erythrocytes after 24 hrs by [G-3H]hypoxanthine uptake. The experiment is classed as functional, organism-based. Conditions: K1, 24 h.

As usually defined, the IC50 is the concentration that gives 50% inhibition. A lower IC50 goes with higher potency.

Take `C[C@H]1[C@@H](CCNCCCCCNc2ccnc3cc(Cl)ccc23)O[C@@H]2O[C@@]3(C)CC[C@H]4[C@H](C)CC[C@@H]1[C@@]24OO3`: the figures for the concentration for half-maximal inhibition (IC50) in the experiment on Plasmodium falciparum [1] and with Plasmodium falciparum [2] were 24.2 nM and 16.2 nM, respectively.

As to `C[C@H]1[C@@H](CC(=O)NCCCNc2ccnc3cc(Cl)ccc23)O[C@@H]2O[C@@]3(C)CC[C@H]4[C@H](C)CC[C@@H]1[C@@]24OO3`, the half-inhibitory concentration (IC50) in the experiment on Plasmodium falciparum [1] came to 9.34 nM; in the experiment on Plasmodium falciparum [2], 8.22 nM.

With `Clc1ccc2c(N3CCN(C4CCC5(CC4)OOC4(O5)C5CC6CC(C5)CC4C6)CC3)ccnc2c1` (stereo not given), the 50% inhibitory concentration (IC50) amounted to 12.6 nM in the experiment on Plasmodium falciparum [1] and 26.2 nM with Plasmodium falciparum [2].

Consider `C[C@H]1[C@@H](CCNCCNc2ccnc3cc(Cl)ccc23)O[C@@H]2O[C@@]3(C)CC[C@H]4[C@H](C)CC[C@@H]1[C@@]24OO3`, for which the concentration for half-maximal inhibition (IC50) turned out to be 5.4 nM with Plasmodium falciparum [1] and 8.7 nM in the experiment on Plasmodium falciparum [2].

Regarding `Clc1ccc2c(NCCNC3CCC4(CC3)OOC3(O4)C4CC5CC(C4)CC3C5)ccnc2c1` (stereo not given), the results for the 50% inhibitory concentration (IC50) with Plasmodium falciparum [1] and in the experiment on Plasmodium falciparum [2] were 6.56 nM and 3.6 nM, respectively.

For `COc1ccc2nc3cc(Cl)ccc3c(N3CCN(C4CCC5(CC4)OOC4(O5)C5CC6CC(C5)CC4C6)CC3)c2c1` (stereo not given), the values for the half-maximal inhibitory concentration (IC50) with Plasmodium falciparum [1] and in the experiment with Plasmodium falciparum [2] were 12.3 nM and 6.76 nM, respectively.

As to `C[C@H]1[C@@H](CCNCCCCNc2ccnc3cc(Cl)ccc23)O[C@@H]2O[C@@]3(C)CC[C@H]4[C@H](C)CC[C@@H]1[C@@]24OO3`, the figures for the IC50 in the experiment on Plasmodium falciparum [1] and with Plasmodium falciparum [2] were 12.6 nM and 13.2 nM, respectively.

In the case of `Clc1ccc2c(NCCCNC3CCC4(CC3)OOC3(O4)C4CC5CC(C4)CC3C5)ccnc2c1` (stereo not given), the IC50 with Plasmodium falciparum [1] is 12.3 nM; in the experiment on Plasmodium falciparum [2] it was 8.32 nM.

For the molecule `COc1ccc2nc3cc(Cl)ccc3c(NCCCNCc3ccc(CO[C@H]4O[C@@H]5O[C@@]6(C)CC[C@H]7[C@H](C)CC[C@@H]([C@H]4C)[C@@]57OO6)cc3)c2c1`, the results for the IC50 with Plasmodium falciparum [1] and with Plasmodium falciparum [2] were 16.3 nM and 20.2 nM, respectively.

As to `O=C1CCC2(CC1)OOC1(O2)C2CC3CC(C2)CC1C3` (stereo not given), the IC50 came out at 3.1 nM in the experiment with Plasmodium falciparum [1] and 3.02 nM in the experiment with Plasmodium falciparum [2].

In the case of `C[C@H]1[C@@H](CCNCCCNc2ccnc3cc(Cl)ccc23)O[C@@H]2O[C@@]3(C)CC[C@H]4[C@H](C)CC[C@@H]1[C@@]24OO3`, the IC50 in the experiment with Plasmodium falciparum [1] was found to be 11.5 nM; with Plasmodium falciparum [2] it was 12.6 nM.

As to `COc1ccc2nc3cc(Cl)ccc3c(NCCCNC3CCC4(CC3)OOC3(O4)C4CC5CC(C4)CC3C5)c2c1` (stereo not given), the 50% inhibitory concentration (IC50) with Plasmodium falciparum [1] was 12.5 nM; in the experiment on Plasmodium falciparum [2], 11.1 nM.

In the case of `COc1ccc2nc3cc(Cl)ccc3c(NCCNC3CCC4(CC3)OOC3(O4)C4CC5CC(C4)CC3C5)c2c1` (stereo not given), the IC50 with Plasmodium falciparum [1] was found to be 9.67 nM; in the experiment on Plasmodium falciparum [2] it was 7.2 nM.

Take `COc1ccc2nc3cc(Cl)ccc3c(NCCNCc3ccc(CO[C@H]4O[C@@H]5O[C@@]6(C)CC[C@H]7[C@H](C)CC[C@@H]([C@H]4C)[C@@]57OO6)cc3)c2c1`: the IC50 worked out at 12.3 nM with Plasmodium falciparum [1] and 19.3 nM in the experiment on Plasmodium falciparum [2].

Regarding `COc1ccc2nc3cc(Cl)ccc3c(NCCNCC[C@H]3O[C@@H]4O[C@@]5(C)CC[C@H]6[C@H](C)CC[C@@H]([C@H]3C)[C@@]46OO5)c2c1`, the half-inhibitory concentration (IC50) with Plasmodium falciparum [1] amounted to 12.5 nM; in the experiment on Plasmodium falciparum [2], 14.3 nM.
